In article PMC9268168, “Novel Nitric Oxide Donor Dinitroazetidine-Coumarin Hybrids as Potent Anti-Intrahepatic Cholangiocarcinoma Agents” (Molecules, 2022):

What was measured:
RBE cells = assay: Intracellular NO measurement with fluorescent probe DAF-FM DA (flow cytometry); type: cell-based, human; conditions: 2 μM, 2.5 h; for MFI (fold of RRx-001), intracellular NO: DAF-FM DA
Procedure: Intracellular NO was measured with 3-amino,4-aminomethyl-2′,7′-diflfluorescein, diacetate (DAF-FM DA, Beyotime, Shanghai, China). In detail, RBE cells in the logarithmic growth phase were collected and spread on 6-well plate at a density of 150,000 per well overnight. The adherent cells were pretreated with 5 μM DAF-FM DA at 37 °C for 20 min and then incubated with RRx-001, compounds 2–6 and 21 for 2.5 h, followed by flow cytometer analysis (BD Accuri C6, Shanghai, China). Cells were washed three times with cold PBS between each step. The experiment was performed three times.

RBE cell lines [1] = assay: cells; conditions: Homo sapiens, 48 h, read-out: IC50, antiproliferation activities in RBE
RBE cell lines [2] = assay: Cell cycle analysis (PI staining, flow cytometry); type: cell-based, human; conditions: 1 μM
Procedure: The experimental cells RBE were cultured and collected when the cells were in good growth state. After digesting with 0.25% trypsin (Beyotime), the cells were collected and centrifuged. The cells were inoculated in petri dishes (Φ = 6 cm) with an inoculation density of 500,000 cells per dish and 3 mL medium per dish. The cells were placed in the incubator, changed to serum-free RPMI 1640 medium after 12 h, left to continue to culture for 12 h, and then compounds were added. Compounds groups with the concentration of 1 μM and control group treated with DMSO were set. The original culture medium was removed, and the compounds were added. After incubation for 16h, the cells were collected and centrifuged at 1000 r for 5 min. The cells were rinsed twice with PBS, and the supernatant was removed by centrifugation. 75% ethanol (1 mL) was added and placed in a refrigerator at −20 °C overnight for cell fixation.
The fixed cells were centrifuged at 2000 r for 5 min, the supernatant was discarded, 1 mL of PBS solution was added, and the supernatant was resuspended and discarded. 0.5 mL of PI staining solution was added to each tube (staining buffer: 20 × PI staining solution: 50 × RNase A = 100:5:2) and stored at room temperature for 30 min in the dark for testing on the flow cytometry.

[3] = test system: Cyclin B1, PARP and Caspase-3 in RBE cell lines; assay: Western blot analysis of cell-cycle- and apoptosis-related proteins; type: cell-based, human; conditions: 1 and 4 μM
Procedure: Approximately 2 × 10^5 cells of RBE were seeded in 6-well plates. After treated with compound 3 (1 and 4 μM) for 24 h, cells were lysed with ice-cold RIPA lysis buffer (Beyotime, Shanghai, China) for 30 min and then centrifuged at 12,000 rpm for 10 min at 4 °C. The total protein concentration was determined by BCA protein assay kit (Beyotime, Shanghai, China). Equal amounts (20 μg per load) of protein samples were subjected to 12% SDS-PAGE gel and transferred onto polyvinylidene fluoride (PVDF) membranes (Epizyme Biotech, Shanghai, China), which were then blocked with 5% bovine serum albumin (Ebsdorfelgrund, Hesse, Germany) for 1.5 h and reacted with primary antibodies (1: 1000 diluted) at 4 °C overnight. Subsequently, the PVDF membranes were incubated in the secondary antibody (1: 10,000 diluted) for 2 h at room temperature. ECL chemiluminescent solution was used for color rendering. The antibodies against Cyclin B1, Caspase 3, and PARP were purchased from Cell Signaling Technology. The secondary antibodies conjugated with horseradish peroxidase (HRP) were from AoWei Biology and CST. The protein bands were developed by the chemiluminescent reagents (Meilunbio, Shanghai, China).

SMILES | melting point [°C] | MFI (fold of RRx-001), intracellular NO (RBE cells) | IC50 (RBE cell lines [1]) [µM] | also measured
Cc1c(Cc2ccc(F)cc2)c(=O)oc2cc(OCCOCC(=O)N3CC([N+](=O)[O-])([N+](=O)[O-])C3)ccc12 [Compound 4, 7-(2-(2-(3,3-Dinitroazetidin-1-yl)-2-oxoethoxy)ethoxy)-3-(4-fluorobenzyl)-4-methyl-2H-chromen-2-one] | 70 to 71.9 | 0.86 fold of RRx-001 | 0.89 | 
Cc1c(Cc2ccc(C#N)cc2)c(=O)oc2cc(OCCOCC(=O)N3CC([N+](=O)[O-])([N+](=O)[O-])C3)ccc12 [Compound 3, 4-((7-(2-(2-(3,3-Dinitroazetidin-1-yl)-2-oxoethoxy)ethoxy)-4-methyl-2-oxo-2H-chromen-3-yl)methyl)benzonitrile] | 74.9 to 76.3 | 1.36 fold of RRx-001 | 0.95 | NO release level in RBE cells (in words) (RBE cells; compared to RRx-001): highest NO release concentration; cell cycle effect (in words) (RBE cell lines [2]): arrest the cell cycle at G2/M phase; mean percentage of cells in the G2/M phase (RBE cell lines [2]; DMSO control 18%): 23%; expression of PARP, Caspase-3 and Cyclin B1 (Western blotting) [3]: downregulated
Cc1cc(=O)oc2cc(OCCCN3CC([N+](=O)[O-])([N+](=O)[O-])C3)ccc12 | 78.5 to 79.6 |  |  | 
Cc1cc(=O)oc2cc(OCCN3CC([N+](=O)[O-])([N+](=O)[O-])C3)ccc12 | 91 to 93 |  |  | 
O=C(CBr)N1CC([N+](=O)[O-])([N+](=O)[O-])C1 [RRx-001, reference compound] |  | 1 fold of RRx-001 | 2 | 
Cc1cc(=O)oc2cc(OCCCCN3CC([N+](=O)[O-])([N+](=O)[O-])C3)ccc12 [Compound 21, 7-(4-(3,3-Dinitroazetidin-1-yl)butoxy)-4-methyl-2H-chromen-2-one] | 85.8 to 87.2 | 1.13 fold of RRx-001 | 1.09 | 
Cc1c(Cc2ccccc2)c(=O)oc2cc(OCCOCC(=O)N3CC([N+](=O)[O-])([N+](=O)[O-])C3)ccc12 [Compound 5, 3-Benzyl-7-(2-(2-(3,3-dinitroazetidin-1-yl)-2-oxoethoxy)ethoxy)-4-methyl-2H-chromen-2-one] | 82.5 to 84.5 | 0.83 fold of RRx-001 | 0.71 | 
Cc1c(Cc2ccc(F)cc2)c(=O)oc2cc(OCCCCN3CC([N+](=O)[O-])([N+](=O)[O-])C3)ccc12 | 113.3 to 115.1 |  |  | 
Cc1c(Cc2ccc(C(F)(F)F)cc2)c(=O)oc2cc(OCCOCC(=O)N3CC([N+](=O)[O-])([N+](=O)[O-])C3)ccc12 [Compound 2, 7-(2-(2-(3,3-Dinitroazetidin-1-yl)-2-oxoethoxy)ethoxy)-4-methyl-3-(4-(trifluoromethyl)benzyl)-2H-chromen-2-one] | 65.3 to 67 | 0.95 fold of RRx-001 | 1.11 | 
Cc1c(Cc2ccc(C#N)cc2)c(=O)oc2cc(OCCN3CC([N+](=O)[O-])([N+](=O)[O-])C3)ccc12 | 122.5 to 124.1 |  |  | 

More lines, main results first:

melting point [°C] | SMILES | MFI (fold of RRx-001), intracellular NO (RBE cells) | IC50 (RBE cell lines [1]) [µM] | also measured
135.1 to 136.3 | Cc1c(Cc2ccc(C#N)cc2)c(=O)oc2cc(OCCCCN3CC([N+](=O)[O-])([N+](=O)[O-])C3)ccc12 |  |  | 
82.5 to 84.5 | Cc1cc(=O)oc2cc(OCCOCC(=O)N3CC([N+](=O)[O-])([N+](=O)[O-])C3)ccc12 |  |  | 
115.1 to 116.8 | Cc1c(Cc2ccccc2)c(=O)oc2cc(OCCCN3CC([N+](=O)[O-])([N+](=O)[O-])C3)ccc12 |  |  | 
98 to 99.8 | Cc1c(Cc2ccc(C(F)(F)F)cc2)c(=O)oc2cc(OCCN3CC([N+](=O)[O-])([N+](=O)[O-])C3)ccc12 |  |  | 
137.9 to 139.2 | Cc1c(Cc2ccc(F)cc2)c(=O)oc2cc(OCCN3CC([N+](=O)[O-])([N+](=O)[O-])C3)ccc12 |  |  | 
173 to 175 | Cc1c(Cc2ccccc2)c(=O)oc2cc(OCCN3CC([N+](=O)[O-])([N+](=O)[O-])C3)ccc12 |  |  | 
